Activity calls are given as the source filed them. No cut-off for these calls is given here.

Chain of Androgen receptor (Homo sapiens), P10275 [T878A] (P10275 whole entry T878A): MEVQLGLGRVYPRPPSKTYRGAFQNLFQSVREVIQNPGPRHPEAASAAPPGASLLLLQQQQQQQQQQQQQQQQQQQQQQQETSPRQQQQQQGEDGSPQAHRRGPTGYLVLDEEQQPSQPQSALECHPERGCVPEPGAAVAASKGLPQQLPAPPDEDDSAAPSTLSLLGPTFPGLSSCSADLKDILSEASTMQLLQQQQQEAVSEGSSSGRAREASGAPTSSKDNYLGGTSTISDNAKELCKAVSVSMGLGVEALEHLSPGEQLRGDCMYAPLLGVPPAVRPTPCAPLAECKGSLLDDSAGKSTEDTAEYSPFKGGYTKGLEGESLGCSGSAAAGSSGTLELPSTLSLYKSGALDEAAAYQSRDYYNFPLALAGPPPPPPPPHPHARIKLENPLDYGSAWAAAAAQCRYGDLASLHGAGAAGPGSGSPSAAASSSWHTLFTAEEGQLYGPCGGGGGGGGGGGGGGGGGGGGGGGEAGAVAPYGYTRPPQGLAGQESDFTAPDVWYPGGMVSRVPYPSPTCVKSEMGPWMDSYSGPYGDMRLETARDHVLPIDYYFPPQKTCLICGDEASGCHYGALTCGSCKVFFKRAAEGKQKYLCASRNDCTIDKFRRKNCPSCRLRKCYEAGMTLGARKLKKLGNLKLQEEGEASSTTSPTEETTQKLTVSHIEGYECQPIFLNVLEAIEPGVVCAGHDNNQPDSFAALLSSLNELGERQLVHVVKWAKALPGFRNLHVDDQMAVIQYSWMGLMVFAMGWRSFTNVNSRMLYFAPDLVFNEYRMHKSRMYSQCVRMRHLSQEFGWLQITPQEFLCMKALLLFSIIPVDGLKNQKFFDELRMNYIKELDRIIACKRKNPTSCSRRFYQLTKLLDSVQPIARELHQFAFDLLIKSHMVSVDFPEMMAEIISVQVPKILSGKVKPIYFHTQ

The subject of one assay is PC-3. Put plainly: Antiproliferative activity against AR negative human PC3 cells after 48 hrs by MTT assay. In kind it is functional, cell-based. Particulars: PC-3, 48 h.
As to `O=C1c2ccc(F)cc2C(=O)N1c1nc(-c2ccc(Cl)cc2)cs1`, the midpoint of inhibition, the IC50, lay at 38 µM.

Regarding `O=C1c2ccc(F)cc2C(=O)N1c1nc(-c2ccc(F)cc2)cs1`, half-maximal inhibition (IC50) was put at 39.5 µM.

`N#Cc1ccc(-c2csc(N3C(=O)c4ccccc4C3=O)n2)cc1` registered an IC50 of 40.3 µM. The IC50 values of the last two compounds are within 1.5-fold of each other.

For `CC(O)(CS(=O)(=O)c1ccc(F)cc1)C(=O)Nc1ccc(C#N)c(C(F)(F)F)c1` (stereo unspecified) [BICALUTAMIDE], the IC50 amounted to 60.7 µM. Compared with the last compound, the IC50 is about 1.5-fold higher.

On to `Cc1ccc(-c2csc(N3C(=O)c4ccc(F)cc4C3=O)n2)cc1`, for which half-maximal inhibition (IC50) required 44.4 µM.

In the case of `O=C1c2ccccc2C(=O)N1c1nc(-c2ccc(F)cc2)cs1`, the 50% inhibitory concentration (IC50) stood at 37.2 µM. The IC50 values of the last two compounds are within 1.5-fold of each other.

`O=C1c2ccc(F)cc2C(=O)N1c1nc(-c2ccccc2)cs1` displayed an IC50 of 40.2 µM.

`COc1ccc(-c2csc(N3C(=O)c4ccccc4C3=O)n2)cc1` yielded an IC50 of 42.9 µM.

The compound `C[C@](O)(CS(=O)(=O)c1ccc(F)cc1)C(=O)Nc1ccc(C#N)c(C(F)(F)F)c1` [(R)-BICALUTAMIDE] displayed an IC50 of 59.8 µM. The IC50 values of the last two compounds are within 1.5-fold of each other.

`O=C1c2ccccc2C(=O)N1c1nc(-c2ccccc2)cs1` yielded an IC50 of 43.9 µM.

In turn, `O=C1c2ccccc2C(=O)N1c1nc(-c2ccc([N+](=O)[O-])cc2)cs1` yielded a half-inhibitory concentration (IC50) of 41.8 µM. This IC50 and that of the compound before are within 1.5-fold of each other.

In the case of `COc1ccc(-c2csc(N3C(=O)c4ccc(F)cc4C3=O)n2)cc1`, the IC50 came out at 41.3 µM.

Take `N#Cc1ccc(-c2csc(N3C(=O)c4ccc(F)cc4C3=O)n2)cc1`: the IC50 is 43.1 µM.

`O=C1c2ccccc2C(=O)N1c1nc(-c2ccc(Cl)cc2)cs1` showed an IC50 of 44.9 µM.

As for `Cc1ccc(-c2csc(N3C(=O)c4ccccc4C3=O)n2)cc1`, the IC50 turned out to be 38.4 µM. This IC50 and that of the compound before are within 1.5-fold of each other.

In the case of `O=C1c2ccc(F)cc2C(=O)N1c1nc(-c2ccc([N+](=O)[O-])cc2)cs1`, it took 39.9 µM to reach half-maximal inhibition (IC50).

The subject of the next assay is Androgen receptor (Homo sapiens), P10275 [T878A]. Put plainly: Antagonist activity at AR T877A mutant in human LNCAP cells assessed as inhibition of DHT-induced c-Myc mRNA level at 1 uM after 24 hrs by SYBR Green dye based qPCR method. In kind it is cell-based.
Details: not given
For `N#Cc1ccc(-c2csc(N3C(=O)c4ccc(F)cc4C3=O)n2)cc1`, the inhibition result was “Active”.

For a further assay the test system is unchanged. Put plainly: Antagonist activity at AR T877A mutant in human LNCAP cells assessed as inhibition of DHT-induced PSA mRNA level at 1 uM after 24 hrs by SYBR Green dye based qPCR method. In kind it is cell-based.
Details: not given
In general terms: Real-time PCR tracks product formation cycle by cycle.
As for `N#Cc1ccc(-c2csc(N3C(=O)c4ccc(F)cc4C3=O)n2)cc1`, the inhibition result is “Active”.

A further assay has the same test system. Put plainly: Potency index, ratio of R-bicalutamide IC50 to compound IC50 for AR T877A mutant in human LNCAP cells assessed as inhibition of DHT-induced proliferation.
Details: not given
It counts as cell-based.
Consider `N#Cc1ccc(-c2csc(N3C(=O)c4ccc(F)cc4C3=O)n2)cc1`, for which the Ratio IC50 was 4.6.

Tested on in a further assay: not listed separately
Put plainly: Selectivity ratio of IC50 for AR negative human PC3 cells to IC50 for AR T877A mutant in human LNCAP cells.
Details: not given
In the case of `O=C1c2ccc(F)cc2C(=O)N1c1nc(-c2ccc(Cl)cc2)cs1`, the “Ratio IC50” value was determined as 1.35.

`O=C1c2ccc(F)cc2C(=O)N1c1nc(-c2ccc(F)cc2)cs1`: the “Ratio IC50” value is on record as 1.8.

Take `N#Cc1ccc(-c2csc(N3C(=O)c4ccccc4C3=O)n2)cc1`: the “Ratio IC50” value worked out at 3.67.

For the compound `Cc1ccc(-c2csc(N3C(=O)c4ccc(F)cc4C3=O)n2)cc1`, the “Ratio IC50” value turned out to be 1.71.

On to `O=C1c2ccccc2C(=O)N1c1nc(-c2ccc(F)cc2)cs1`, for which the “Ratio IC50” value is 1.3.

On to `O=C1c2ccc(F)cc2C(=O)N1c1nc(-c2ccccc2)cs1`, for which the “Ratio IC50” value amounted to 1.17.

Regarding `COc1ccc(-c2csc(N3C(=O)c4ccccc4C3=O)n2)cc1`, the “Ratio IC50” value came to 3.14.

For the compound `O=C1c2ccccc2C(=O)N1c1nc(-c2ccccc2)cs1`, the “Ratio IC50” value turned out to be 1.19.

Turning to `O=C1c2ccccc2C(=O)N1c1nc(-c2ccc([N+](=O)[O-])cc2)cs1`, the “Ratio IC50” value is 3.17.

`COc1ccc(-c2csc(N3C(=O)c4ccc(F)cc4C3=O)n2)cc1`: the “Ratio IC50” value is recorded as 5.05.

In the case of `N#Cc1ccc(-c2csc(N3C(=O)c4ccc(F)cc4C3=O)n2)cc1`, the “Ratio IC50” value came out at 7.23.

Consider `O=C1c2ccccc2C(=O)N1c1nc(-c2ccc(Cl)cc2)cs1`, for which the “Ratio IC50” value stood at 1.71.

Turning to `Cc1ccc(-c2csc(N3C(=O)c4ccccc4C3=O)n2)cc1`, the “Ratio IC50” value was 1.32.

As to `O=C1c2ccc(F)cc2C(=O)N1c1nc(-c2ccc([N+](=O)[O-])cc2)cs1`, the “Ratio IC50” value is given as 5.12.

The subject of another assay is Androgen receptor (Homo sapiens), P10275 [T878A]. Put plainly: Potency index, ratio of bicalutamide IC50 to compound IC50 for AR T877A mutant in human LNCAP cells assessed as inhibition of DHT-induced proliferation.
Details: not given
It counts as cell-based.
With `N#Cc1ccc(-c2csc(N3C(=O)c4ccc(F)cc4C3=O)n2)cc1`, the Ratio IC50 is 7.4.

The next assay has the same test system. Put plainly: Antagonist activity at AR T877A mutant in human LNCAP cells assessed as inhibition of DHT-induced TMPRSS2 mRNA level at 1 uM after 24 hrs by SYBR Green dye based qPCR method.
Details: not given
It counts as cell-based.
As to `N#Cc1ccc(-c2csc(N3C(=O)c4ccc(F)cc4C3=O)n2)cc1`, the inhibition result was “Active”.

The test system is the same in another assay. Put plainly: Antagonist activity at AR T877A mutant in human LNCAP cells assessed as inhibition of DHT-induced Cyclin D1 mRNA level at 1 uM after 24 hrs by SYBR Green dye based qPCR method. In kind it is cell-based.
Details: not given
With `N#Cc1ccc(-c2csc(N3C(=O)c4ccc(F)cc4C3=O)n2)cc1`, the inhibition result was “Active”.

Tested on in a further assay: not listed separately
Put plainly: Selectivity index, ratio of IC50 for mouse 3T3 cells to IC50 for AR T877A mutant in human LNCAP cells. It counts as functional.
Details: not given
On to `O=C1c2ccc(F)cc2C(=O)N1c1nc(-c2ccc(Cl)cc2)cs1`, for which the “Ratio IC50” value turned out to be 1.59.

Take `O=C1c2ccc(F)cc2C(=O)N1c1nc(-c2ccc(F)cc2)cs1`: the “Ratio IC50” value is given as 2.04.

For the compound `N#Cc1ccc(-c2csc(N3C(=O)c4ccccc4C3=O)n2)cc1`, the “Ratio IC50” value was 3.57.

For `Cc1ccc(-c2csc(N3C(=O)c4ccc(F)cc4C3=O)n2)cc1`, the “Ratio IC50” value is given as 1.51.

With `O=C1c2ccccc2C(=O)N1c1nc(-c2ccc(F)cc2)cs1`, the “Ratio IC50” value was 1.36.

With `O=C1c2ccc(F)cc2C(=O)N1c1nc(-c2ccccc2)cs1`, the “Ratio IC50” value is listed as 1.9.

Take `COc1ccc(-c2csc(N3C(=O)c4ccccc4C3=O)n2)cc1`: the “Ratio IC50” value was 3.29.

`O=C1c2ccccc2C(=O)N1c1nc(-c2ccccc2)cs1`: the “Ratio IC50” value came to 1.26.

`O=C1c2ccccc2C(=O)N1c1nc(-c2ccc([N+](=O)[O-])cc2)cs1`: the “Ratio IC50” value came to 3.15.

Regarding `COc1ccc(-c2csc(N3C(=O)c4ccc(F)cc4C3=O)n2)cc1`, the “Ratio IC50” value came to 5.04.

`N#Cc1ccc(-c2csc(N3C(=O)c4ccc(F)cc4C3=O)n2)cc1`: the “Ratio IC50” value is given as 7.09.

With `O=C1c2ccccc2C(=O)N1c1nc(-c2ccc(Cl)cc2)cs1`, the “Ratio IC50” value was determined as 1.91.

On to `Cc1ccc(-c2csc(N3C(=O)c4ccccc4C3=O)n2)cc1`, for which the “Ratio IC50” value is recorded as 1.73.

For the compound `O=C1c2ccc(F)cc2C(=O)N1c1nc(-c2ccc([N+](=O)[O-])cc2)cs1`, the “Ratio IC50” value worked out at 4.69.

Another assay addresses T1, Estrogen receptor (Homo sapiens) (UniProt P03372).
T1 sequence (whole entry): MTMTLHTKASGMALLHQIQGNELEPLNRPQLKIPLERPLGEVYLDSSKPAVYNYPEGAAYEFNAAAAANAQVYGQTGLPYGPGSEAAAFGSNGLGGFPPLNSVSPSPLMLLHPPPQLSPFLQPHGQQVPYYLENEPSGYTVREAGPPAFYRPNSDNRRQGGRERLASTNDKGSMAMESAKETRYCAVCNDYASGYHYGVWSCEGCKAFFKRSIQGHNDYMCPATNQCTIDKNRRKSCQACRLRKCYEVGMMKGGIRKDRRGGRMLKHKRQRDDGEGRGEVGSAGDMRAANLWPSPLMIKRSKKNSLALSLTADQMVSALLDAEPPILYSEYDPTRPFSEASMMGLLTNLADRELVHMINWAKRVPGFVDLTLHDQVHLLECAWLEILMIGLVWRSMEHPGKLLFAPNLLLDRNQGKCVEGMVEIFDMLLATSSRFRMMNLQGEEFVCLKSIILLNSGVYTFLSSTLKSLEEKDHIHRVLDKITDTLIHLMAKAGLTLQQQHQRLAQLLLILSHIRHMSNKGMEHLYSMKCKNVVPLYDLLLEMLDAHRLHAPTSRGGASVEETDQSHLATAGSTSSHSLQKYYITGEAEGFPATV
Put plainly: Activity at ER in human LNCAP cells assessed as inhibition of pS2 mRNA level at 5 uM after 24 hrs by SYBR Green dye based qPCR method. In kind it is cell-based.
Details: not given
Turning to `N#Cc1ccc(-c2csc(N3C(=O)c4ccc(F)cc4C3=O)n2)cc1`, the inhibition entry was “inactive”.

Broadly, the IC50 is the concentration at which inhibition is half-maximal. A lower IC50 goes with greater potency.
